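48-hour exposure; five concentrations; linearly interpolated endpoints. At the GI50, growth is halved.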 The source made the active and inactive calls. Cut-off read from the data, not from the text of the source: active = GI50 up to about 1.1 µM and inactive = higher.
Assays:
Test in all cases: NCI anticancer screen, dose series, 48 h
CCRF-CEM = test system: CCRF-CEM
A549 = test system: A549
HOP-62 = test system: HOP-62
NCI-H226 = test system: NCI-H226
Hs-578T = test system: Hs-578T
ACHN = test system: ACHN
UACC-62 = test system: UACC-62
M14 = test system: M14
HOP-92 = test system: HOP-92
MDA-MB-231 = test system: MDA-MB-231
MCF7 = test system: MCF7
OVCAR-4 = test system: OVCAR-4
NCI-H460 = test system: NCI-H460
EKVX = test system: EKVX
NCI-H522 = test system: NCI-H522
SNB-19 = test system: SNB-19
HL-60 = test system: HL-60
PC-3 = test system: PC-3
SK-OV-3 = test system: SK-OV-3
MDA-N = test system: MDA-N

Measured: GI50

Cc1ccc(C)c(NC(=O)NCc2ccc(Cl)cc2)c1
inactive: CCRF-CEM 8.51 µM | A549 > 100 µM | HOP-62 9.31 µM | NCI-H226 38.2 µM | Hs-578T 25.5 µM | ACHN 20.5 µM | UACC-62 > 100 µM | M14 52.5 µM | HOP-92 18.3 µM | MDA-MB-231 20 µM | MCF7 50.2 µM | OVCAR-4 20.1 µM | NCI-H460 > 85.3 µM | EKVX 97.9 µM | NCI-H522 24.9 µM | SNB-19 > 23.3 µM | HL-60 > 100 µM | PC-3 > 100 µM | SK-OV-3 13.8 µM | MDA-N > 100 µM

Brc1ccc2c(-c3nc(-c4c[nH]c5ccccc45)cs3)c[nH]c2c1
inactive: CCRF-CEM 27.4 µM | A549 9.59 µM | HOP-62 > 45.8 µM | NCI-H226 39 µM | Hs-578T > 100 µM | ACHN 43.1 µM | UACC-62 27.5 µM | M14 51.6 µM | HOP-92 43.1 µM | MDA-MB-231 47.1 µM | MCF7 28.8 µM | OVCAR-4 > 53.5 µM | NCI-H460 11.8 µM | EKVX 12.7 µM | NCI-H522 48 µM | SNB-19 41.9 µM | HL-60 63 µM | PC-3 30.8 µM | SK-OV-3 > 100 µM | MDA-N 41.9 µM

CC(=O)NS(=O)(=O)c1ccc(NCc2cccc3c(=O)c4ccc(Cl)cc4oc23)cc1
inactive: CCRF-CEM 4.2 µM | A549 > 80.9 µM | HOP-62 39.1 µM | NCI-H226 93.3 µM | Hs-578T 25.4 µM | ACHN 38.5 µM | UACC-62 48 µM | M14 41.1 µM | HOP-92 16.6 µM | MDA-MB-231 > 59 µM | MCF7 8.3 µM | OVCAR-4 > 54.5 µM | NCI-H460 19.7 µM | EKVX 38.3 µM | NCI-H522 27.4 µM | SNB-19 57.3 µM | HL-60 1.44 µM | PC-3 38.5 µM | SK-OV-3 > 53.8 µM | MDA-N 42.6 µM

— ChEMBL document CHEMBL1201862, “PubChem BioAssay data set” (2004)
